# Data reported in patent US20260078122A1, “INDAZOLE COMPOUNDS AS PKMYT1 KINASE INHIBITORS” (Hoffmann-La Roche Inc., priority 2023, published 2026).
# Molecular target: T1, recombinant human Myt1 (full length PKMYT1) (Homo sapiens, UniProt Q99640)
# T1 sequence (Q99640 1-499): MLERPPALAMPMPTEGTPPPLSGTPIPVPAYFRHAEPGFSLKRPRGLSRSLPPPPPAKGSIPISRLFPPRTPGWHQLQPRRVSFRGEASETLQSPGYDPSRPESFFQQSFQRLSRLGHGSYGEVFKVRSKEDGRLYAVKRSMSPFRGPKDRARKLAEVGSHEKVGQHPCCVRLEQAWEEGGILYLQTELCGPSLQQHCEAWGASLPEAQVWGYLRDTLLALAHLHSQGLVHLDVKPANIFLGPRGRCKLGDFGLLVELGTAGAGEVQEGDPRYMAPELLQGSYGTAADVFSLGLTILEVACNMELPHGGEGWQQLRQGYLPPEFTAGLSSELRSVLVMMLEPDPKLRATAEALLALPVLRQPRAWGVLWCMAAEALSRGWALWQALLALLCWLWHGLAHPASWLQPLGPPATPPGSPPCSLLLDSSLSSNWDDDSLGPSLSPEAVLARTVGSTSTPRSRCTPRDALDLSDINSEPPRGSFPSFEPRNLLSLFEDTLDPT
# Experiment: ADP-Glo assay (Myt1 kinase activity)
row,Structure (SMILES),IC50
1,"Cc1cc2[nH]c(=O)c(N)c(-c3ccc(F)c4[nH]ncc34)c2nc1C(C)(C)O [Example 088, 3-Amino-4-(7-fluoro-1H-indazol-4-yl)-6-(1-hydroxy-1-methyl-ethyl)-7-methyl-1H-1,5-naphthyridin-2-one]",47 nM
2,"COC(C)(C)C#Cc1nc2c(-c3ccc(F)c4[nH]ncc34)c(N)c(=O)[nH]c2cc1C [Example 072, 3-Amino-4-(7-fluoro-1H-indazol-4-yl)-6-(3-methoxy-3-methyl-but-1-ynyl)-7-methyl-1H-1,5-naphthyridin-2-one]",11.2 nM
3,"Cc1cc2[nH]c(=O)c(N)c(-c3ccc(F)c4[nH]ncc34)c2nc1OC1CCC1 [Example 46, 3-Amino-6-(cyclobutoxy)-4-(7-fluoro-1H-indazol-4-yl)-7-methyl-1H-1,5-naphthyridin-2-one]",10.6 nM
4,"COC(=O)C1CC(Oc2nc3c(-c4ccc(F)c5[nH]ncc45)c(N)c(=O)[nH]c3cc2C)C1 (stereo not drawn) [Example 067, Methyl 3-[[7-amino-8-(7-fluoro-1H-indazol-4-yl)-3-methyl-6-oxo-5H-1,5-naphthyridin-2-yl]oxy]cyclobutanecarboxylate]",24.4 nM
5,"Nc1c(-c2ccc(F)c3[nH]ncc23)c2ncc(-c3ccns3)cc2[nH]c1=O [Example 10, 3-Amino-4-(7-fluoro-1H-indazol-4-yl)-7-isothiazol-5-yl-1H-1,5-naphthyridin-2-one]",42.9 nM
6,"COc1cc(C)cc2[nH]c(=O)c(N)c(-c3ccc(F)c4[nH]ncc34)c12 [Example 102, 3-Amino-4-(7-fluoro-1H-indazol-4-yl)-5-methoxy-7-methyl-1H-quinolin-2-one]",16 nM
7,"Cc1c(C2CCC2)cnc2c(-c3ccc(F)c4[nH]ncc34)c(N)c(=O)[nH]c12 [Example 119, 3-Amino-7-cyclobutyl-4-(7-fluoro-1H-indazol-4-yl)-8-methyl-1H-1,5-naphthyridin-2-one]",13 nM
8,"Cc1cc2[nH]c(=O)c(N)c(-c3ccc(F)c4[nH]ncc34)c2nc1N1CCN(C(C)C)CC1 [Example 28, 3-Amino-4-(7-fluoro-1H-indazol-4-yl)-6-(4-isopropylpiperazin-1-yl)-7-methyl-1H-1,5-naphthyridin-2-one]",29.1 nM
9,"C=Cc1nc2c(-c3ccc(F)c4[nH]ncc34)c(N)c(=O)[nH]c2c(Cl)c1C [Example 113, 3-Amino-8-chloro-4-(7-fluoro-1H-indazol-4-yl)-7-methyl-6-vinyl-1H-1,5-naphthyridin-2-one]",< 10 nM
10,"Nc1c(-c2cc(F)cc3[nH]ncc23)c2ncc(Cl)cc2[nH]c1=O [Example 36, 3-Amino-7-chloro-4-(6-fluoro-1H-indazol-4-yl)-1H-1,5-naphthyridin-2-one]",37.8 nM
11,"C=C(C)c1cnc2c(-c3ccc(F)c4[nH]ncc34)c(N)c(=O)[nH]c2c1C [Example 125, 3-Amino-4-(7-fluoro-1H-indazol-4-yl)-7-isopropenyl-8-methyl-1H-1,5-naphthyridin-2-one]",< 10 nM
12,"Cc1c(CC2CC2)cnc2c(-c3ccc(F)c4[nH]ncc34)c(N)c(=O)[nH]c12 [Example 131, 3-Amino-7-(cyclopropylmethyl)-4-(7-fluoro-1H-indazol-4-yl)-8-methyl-1H-1,5-naphthyridin-2-one]",17.5 nM
13,"Cc1cc2[nH]c(=O)c(N)c(-c3ccc(F)c4[nH]ncc34)c2nc1N1CC2CC1CN2C (stereo not drawn) [Example 30, 3-Amino-4-(7-fluoro-1H-indazol-4-yl)-7-methyl-6-(5-methyl-2,5-diazabicyclo[2.2.1]heptan-2-yl)-1H-1,5-naphthyridin-2-one]",15.3 nM
14,Nc1c(-c2ccc(F)c3[nH]ncc23)c2ncc(F)cc2[nH]c1=O [Example 4],48.1 nM
15,"Cc1cc2[nH]c(=O)c(N)c(-c3ccc(F)c4[nH]ncc34)c2nc1Cl [Example 3, 3-Amino-6-chloro-4-(7-fluoro-1H-indazol-4-yl)-7-methyl-1H-1,5-naphthyridin-2-one]",< 10 nM
16,"Cc1c(I)cnc2c(-c3ccc(F)c4[nH]ncc34)c(N)c(=O)[nH]c12 [Example 116, 3-Amino-4-(7-fluoro-1H-indazol-4-yl)-7-iodo-8-methyl-1H-1,5-naphthyridin-2-one]",< 10 nM
17,"Cc1nc2c(-c3ccc(F)c4[nH]ncc34)c(N)c(=O)[nH]c2c(Cl)c1C [Example 57, 3-Amino-8-chloro-4-(7-fluoro-1H-indazol-4-yl)-6,7-dimethyl-1H-1,5-naphthyridin-2-one]",11.7 nM
18,"Cc1c(C2CC2(C)C)cnc2c(-c3ccc(F)c4[nH]ncc34)c(N)c(=O)[nH]c12 (stereo not drawn) [Example 130, 3-Amino-7-(2,2-dimethylcyclopropyl)-4-(7-fluoro-1H-indazol-4-yl)-8-methyl-1H-1,5-naphthyridin-2-one]",12.3 nM
19,"Cc1cc2[nH]c(=O)c(N)c(-c3ccc(F)c4[nH]ncc34)c2nc1N1CCC(O)C1 (stereo not drawn) [Example 24, 3-Amino-4-(7-fluoro-1H-indazol-4-yl)-6-(3-hydroxypyrrolidin-1-yl)-7-methyl-1H-1,5-naphthyridin-2-one]",15.6 nM
20,"COCC#Cc1nc2c(-c3ccc(F)c4[nH]ncc34)c(N)c(=O)[nH]c2cc1C [Example 071, 3-Amino-4-(7-fluoro-1H-indazol-4-yl)-6-(3-methoxyprop-1-ynyl)-7-methyl-1H-1,5-naphthyridin-2-one]",13.1 nM
21,"Cc1cc2[nH]c(=O)c(N)c(-c3ccc(F)c4[nH]ncc34)c2nc1OC(F)F [Example 062, 3-Amino-6-(difluoromethoxy)-4-(7-fluoro-1H-indazol-4-yl)-7-methyl-1H-1,5-naphthyridin-2-one]",14.6 nM
22,"Nc1c(-c2ccc(F)c3[nH]ncc23)c2nc(Cl)c(C3CC3)cc2[nH]c1=O [Example 095, 3-Amino-6-chloro-7-cyclopropyl-4-(7-fluoro-1H-indazol-4-yl)-1H-1,5-naphthyridin-2-one]",< 10 nM
23,"Cc1ncc(OC2CCC2)c2c(-c3ccc(F)c4[nH]ncc34)c(N)c(=O)[nH]c12 [Example 189, 3-Amino-5-(cyclobutoxy)-4-(7-fluoro-1H-indazol-4-yl)-8-methyl-1H-1,7-naphthyridin-2-one]",10.6 nM
24,"C=Cc1cnc2c(-c3ccc(F)c4[nH]ncc34)c(N)c(=O)[nH]c2c1C [Example 123, 3-Amino-4-(7-fluoro-1H-indazol-4-yl)-8-methyl-7-vinyl-1H-1,5-naphthyridin-2-one]",< 10 nM
25,"Cc1cc2[nH]c(=O)c(N)c(-c3ccc(F)c4[nH]ncc34)c2cc1Br [Example 104, 3-Amino-6-bromo-4-(7-fluoro-1H-indazol-4-yl)-7-methyl-1H-quinolin-2-one]",15.7 nM

# More lines, now with the values ahead:
row,IC50,Structure (SMILES)
1,< 10 nM,"Cc1nc(Cl)cc2c(-c3ccc(F)c4[nH]ncc34)c(N)c(=O)[nH]c12 [Example 175, 3-Amino-6-chloro-4-(7-fluoro-1H-indazol-4-yl)-8-methyl-1H-1,7-naphthyridin-2-one]"
2,33.3 nM,"COCc1cnc(C)c2[nH]c(=O)c(N)c(-c3ccc(F)c4[nH]ncc34)c12 [Example 193, 3-Amino-4-(7-fluoro-1H-indazol-4-yl)-5-(methoxymethyl)-8-methyl-1H-1,7-naphthyridin-2-one]"
3,< 10 nM,"Cc1c(C2CC2)ncc2c(-c3ccc(F)c4[nH]ncc34)c(N)c(=O)[nH]c12 [Example 165, 3-amino-7-cyclopropyl-4-(7-fluoro-1H-indazol-4-yl)-8-methyl-1H-1,6-naphthyridin-2-one]"
4,11.2 nM,"Nc1c(-c2ccc(F)c3[nH]ncc23)c2c(OC(F)F)nc(C3CC3)cc2[nH]c1=O [Example 168, 3-Amino-7-cyclopropyl-5-(difluoromethoxy)-4-(7-fluoro-1H-indazol-4-yl)-1H-1,6-naphthyridin-2-one]"
5,13.8 nM,"Cc1cc2[nH]c(=O)c(N)c(-c3ccc(F)c4[nH]ncc34)c2nc1-c1cscn1 [Example 152, 3-Amino-4-(7-fluoro-1H-indazol-4-yl)-7-methyl-6-thiazol-4-yl-1H-1,5-naphthyridin-2-one]"
6,12.5 nM,"Cc1ncc(F)c2c(-c3ccc(F)c4[nH]ncc34)c(N)c(=O)[nH]c12 [Example 179, 3-Amino-5-fluoro-4-(7-fluoro-1H-indazol-4-yl)-8-methyl-1H-1,7-naphthyridin-2-one]"
7,20 nM,"Cc1ncc(OCc2ccccc2)c2c(-c3ccc(F)c4[nH]ncc34)c(N)c(=O)[nH]c12 [Example 181, 3-Amino-5-benzyloxy-4-(7-fluoro-1H-indazol-4-yl)-8-methyl-1H-1,7-naphthyridin-2-one]"
8,12.7 nM,"COc1c(C)nc(C)c2[nH]c(=O)c(N)c(-c3ccc(F)c4[nH]ncc34)c12 [Example 174, 3-Amino-4-(7-fluoro-1H-indazol-4-yl)-5-methoxy-6,8-dimethyl-1H-1,7-naphthyridin-2-one]"
9,14.3 nM,"Cc1ncc(Cl)c2c(-c3ccc(F)c4[nH]ncc34)c(N)c(=O)[nH]c12 [Example 176, 3-Amino-5-chloro-4-(7-fluoro-1H-indazol-4-yl)-8-methyl-1H-1,7-naphthyridin-2-one]"
10,< 10 nM,"Cc1ncc(OC(F)(F)F)c2c(-c3ccc(F)c4[nH]ncc34)c(N)c(=O)[nH]c12 [Example 192, 3-Amino-4-(7-fluoro-1H-indazol-4-yl)-8-methyl-5-(trifluoromethoxy)-1H-1,7-naphthyridin-2-one]"
11,11.4 nM,"Cc1c([C@@H]2C[C@H]2C)cnc2c(-c3ccc(F)c4[nH]ncc34)c(N)c(=O)[nH]c12 (racemic) [Example 144, 3-Amino-4-(7-fluoro-1H-indazol-4-yl)-8-methyl-7-[rac-(1R,2R)-2-methylcyclopropyl]-1H-1,5-naphthyridin-2-one]"
